Like-named read-outs stand apart in the source and are kept apart here.
Assays:
[1] = tested on: human breast adenocarcinoma, MX-1
[2] = 0.257 moles per 100 grams; general statement; cited from earlier work
[3] = background; cited from earlier work
[4] = number of animals of five, single intratumor injection 0.01 ml, standard dosage level

Row | Compound | Premature Death ([1]; in vivo) | Tumor at Death ([1]; in vivo) | further results
1 | CC/C(=C(/CC)c1ccc(O)cc1)c1ccc(O)cc1 [diethylstilbestrol (no Zn), diethylstilbestrol] | 2 | – | –
2 | norisoguaiacin [norisoguaiacin (no Zn)] | 1 | 1 | Tumor Free 60 Days [1, 4]: 2; Tumor Recurrence [1, 4]: 0
3 | [Cl-].[Cl-].[Zn+2] [zinc chloride] | – | – | concentration causing tissue destruction when topically applied [2]: ≥ 35%
4 | Oc1ncnc2[nH]ncc12 [allopurinol (no Zn), allopurinol] | 0 | – | –
5 | COc1cc(C2c3cc4c(cc3C(OC3OC5COC(c6cccs6)OC5C(O)C3O)C3COC(=O)C23)OCO4)cc(OC)c1O (stereo not drawn) [VM-26 (no Zn), epipodophyllotoxin beta-D thenylidene glucopyranoside] | 0 | 5 | Tumor Free 60 Days ([1]; in vivo): 0; Tumor Recurrence ([1]; in vivo): 0
6 | O=C(O)C=Cc1ccc(O)cc1 [p-hydroxycinnamic acid (no Zn), p-hydroxycinnamic acid] | 0 | – | –
7 | Oc1ccc(CCc2ccc(CCc3ccc(O)c(O)c3)cc2)cc1O [1,4-bis(3,4-dihydroxyphenethyl)-benzene] | 0 | – | –
8 | COc1cccc2c1C(=O)c1c(O)c3c(c(O)c1C2=O)C[C@@](O)(C(=O)CO)C[C@@H]3O[C@H]1C[C@H](N)[C@H](O)[C@H](C)O1 [adriamycin (no Zn), adriamycin] | 1 | – | –
9 | CN(Cc1cnc2nc(N)nc(N)c2n1)c1ccc(C(=O)N[C@@H](CCC(=O)O)C(=O)O)cc1 [methotrexate] | – | – | systemic toxicity [3]: systemically toxic
10 | O=C1c2c(O)cccc2Cc2cccc(O)c21 [dithranol (no Zn), dithranol] | 0 | – | –
11 | COc1cc(C2c3cc4c(cc3C(O)C3COC(=O)C23)OCO4)cc(OC)c1O (centres unmarked) [4'-demethylepipodophyllotoxin (no Zn), 4'-demethylepipodophyllotoxin] | 0 | 4 | Tumor Free 60 Days ([1]; in vivo): 1; Tumor Recurrence ([1]; in vivo): 3
12 | CO[C@@]12[C@H](COC(N)=O)C3=C(C(=O)C(C)=C(N)C3=O)N1C[C@@H]1N[C@@H]12 [mitomycin (no Zn), mitomycin] | 4 | – | –
13 | CC(C)(C)c1cccc(O)c1 [3-tertbutylphenol (no Zn), 3-tertbutylphenol] | 3 | – | –
14 | O=C(O)CCCCCCCC(=O)O [azelaic acid (no Zn), azelaic acid] | 0 | – | –
15 | COc1cccc2c1C(=O)c1c(O)c3c(c(O)c1C2=O)C[C@@](O)(C(C)=O)C[C@@H]3O[C@H]1C[C@H](N)[C@H](O)[C@H](C)O1 [daunomycin (no Zn), daunomycin] | 2 | – | –
16 | CC(Cc1ccc(O)c(O)c1)C(C)Cc1ccc(O)c(O)c1 (racemic) [dl-NDGA (no Zn), nordihydroguaiaretic acid] | 0 | 1 | Tumor Free 60 Days [1, 4]: 4; Tumor Recurrence [1, 4]: 0
17 | O=P1(N(CCCl)CCCl)NCCCO1 (centres unmarked) [cyclophosphamide (no Zn), cyclophosphamide] | 0 | 5 | Tumor Free 60 Days [1, 4]: 0; Tumor Recurrence [1, 4]: 0
18 | N.N.[Cl][Pt][Cl] [platinum cis-diamine-dichloride (no Zn), platinum cis-diamine-dichloride] | 0 | 4 | Tumor Free 60 Days [1, 4]: 1; Tumor Recurrence [1, 4]: 0
19 | COc1cc(C2c3cc4c(cc3C(OC3OC5COC(C)OC5C(O)C3O)C3COC(=O)C23)OCO4)cc(OC)c1O (stereo not drawn) [VP-16 (no Zn), epipodophyllotoxin beta-D ethylidene glucopyranoside] | 2 | 3 | Tumor Free 60 Days ([1]; in vivo): 2; Tumor Recurrence ([1]; in vivo): 0
20 | CC(=O)Oc1ccc(C=CC=Cc2ccccc2)cc1OC(C)=O [1-(3,4-diacetoxyphenyl)-4-phenyl-buta-1,3-diene] | 0 | – | –
